The text below walks through data of patent publication US9856279B2 (AGIOS PHARMACEUTICALS, INC, priority 2011, dated 2018).

Assay [1] has as its system HT1080 cells. In words: Cellular assay for IDH1m inhibitors: inhibition of 2-HG production (LC-MS, 48 hours) in HT1080 cells. The class given is cell-based. Particulars: Homo sapiens, HT-1080; inhibition of 2-HG production, HT1080 cells; read-out: HT1080 IC50. A digest of the protocol: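 HT1080 or U87MG cells were seeded at 5000/well in DMEM with 10% FBS, incubated overnight, then treated with compounds (0.2% DMSO final) for 48 h. Medium 2-HG was quantified by LC-MS, and IC50 was taken as the concentration reducing 2-HG by 50% versus DMSO control.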

Assay [2] relates to U87MG cells. The experiment in a line: Cellular assay for IDH1m inhibitors: inhibition of 2-HG production (LC-MS, 48 hours) in U87MG cells. The class given is cell-based. Particulars: Homo sapiens, U-87 MG, inhibition of 2-HG production, U87R132H cells; read-out: U87R132H IC50. As for the experimental part:
Cells (e.g., HT1080 or U87MG) and are grown in T125 flasks in DMEM containing 10% FBS, 1× penicillin/streptomycin and 500 ug/mL G418. They are harvested by trypsin and seeded into 96 well white bottom plates at a density of 5000 cell/well in 100 ul/well in DMEM with 10% FBS. No cells are plates in columns 1 and 12. Cells are incubated overnight at 37° C. in 5% CO2. The next day compounds are made up at 2× concentration and 100 ul are added to each cell well. The final concentration of DMSO is 0.2% and the DMSO control wells are plated in row G. The plates are then placed in the incubator for 48 hours. At 48 hours, 100 μl of media is removed from each well and analyzed by LC-MS for 2-HG concentrations. The cell plate is placed back in the incubator for another 24 hours. At 72 hours post compound addition, 10 mL/plate of Promega Cell Titer Glo reagent is thawed and mixed. The cell plate is removed from the incubator and allowed to equilibrate to room temperature. Then 100 ul of reagent is added to each well of media. The cell plate is then placed on an orbital shaker for 10 minutes and then allowed to sit at room temperature for 20 minutes. The plate is then read for luminescence with an integration time of 500 ms.
The IC50 for inhibition of 2-HG production (concentration of test compound to reduce 2HG production by 50% compared to control) in these two cell lines for various compounds of formula I is set forth in Table 4 above.

Assay [3] has as its target IDH1 R132H (Homo sapiens, UniProt O75874, R132H). In words: Assay for IDH1 R132H inhibitors (NADPH/aKG, resazurin detection). The settings on record: enzyme assay of Example 12; read-out: IDH1R132H IC50. In kind it is biochemical. A digest of the protocol: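 Read-out is resorufin fluorescence (Ex544/Em590) 5 min after adding a 30 μM resazurin detection mix. Before that, mutant enzyme (0.2 μg/ml in its mix) ran 50 min at room temperature with compound, 8 uM NADPH and 2 mM aKG (mix levels) in Tris pH 7.5 with NaCl, MgCl2, BSA.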

IDH1 R132H, sequence (O75874 whole entry R132H): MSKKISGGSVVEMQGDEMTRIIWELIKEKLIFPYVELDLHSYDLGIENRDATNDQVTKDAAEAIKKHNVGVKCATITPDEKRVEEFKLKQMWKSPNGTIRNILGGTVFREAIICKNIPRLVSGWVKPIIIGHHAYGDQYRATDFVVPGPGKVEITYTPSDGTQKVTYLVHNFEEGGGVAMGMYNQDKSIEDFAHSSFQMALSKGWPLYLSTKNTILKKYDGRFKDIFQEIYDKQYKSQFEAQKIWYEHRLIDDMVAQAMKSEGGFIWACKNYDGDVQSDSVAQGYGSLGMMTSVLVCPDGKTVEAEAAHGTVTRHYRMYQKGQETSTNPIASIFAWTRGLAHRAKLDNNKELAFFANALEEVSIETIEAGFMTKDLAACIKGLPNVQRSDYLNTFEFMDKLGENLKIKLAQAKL

The IC50 is the concentration at which inhibition is half-maximal. On to `C=Cc1cc(-c2cc(C#N)c(N3CCN(C(=O)CCO)[C@H](C4CC4)C3)nc2C2CC2)c2cnn(C)c2n1` [Compound 744, (R)-6-cyclopropyl-2-(3-cyclopropyl-4-(3-hydroxypropanoyl)piperazin-1-yl)-5-(1-methyl-6-vinyl-1H-pyrazolo[3,4-b]pyridin-4-yl)nicotinonitrile], for which the 50% inhibitory concentration (IC50) in assay [1], in assay [2] and in assay [3] was less than 500 nM in each case.

As for `COCCC(=O)N1CCN(c2nc(C3CC3)c(-c3ccccc3OC)cc2C#N)C[C@H]1C(C)C` [Compound 275, (R)-6-cyclopropyl-2-(3-isopropyl-4-(3-methoxypropanoyl)piperazin-1-yl)-5-(2-methoxyphenyl)nicotinonitrile], the concentration for half-maximal inhibition (IC50) in assay [1] is 1000 to 10000 nM; in assay [2], 1000 to 10000 nM; in assay [3] it was less than 500 nM.

Consider `COCCC(=O)N1CCN(c2nc(C3CC3)c(-c3cccc(NC(=O)CCl)c3)cc2C#N)C[C@H]1C` [Compound 403, (R)-2-chloro-N-(3-(5-cyano-2-cyclopropyl-6-(4-(3-methoxypropanoyl)-3-methylpiperazin-1-yl)pyridin-3-yl)phenyl)acetamide], for which the IC50 in assay [1] is 500 to 1000 nM; in assay [2], 500 to 1000 nM; in assay [3], less than 500 nM.

As to `C=Cc1cc(-c2cc(C#N)c(N3CCN(C(=O)C4CC4)[C@H](C4CC4)C3)nc2C2CC2)ncn1` [Compound 541, (R)-2-(4-(cyclopropanecarbonyl)-3-cyclopropylpiperazin-1-yl)-6-cyclopropyl-5-(6-vinylpyrimidin-4-yl)nicotinonitrile], the IC50 in assay [1], in assay [2] and in assay [3] was less than 500 nM each time.

For the compound `COCCC(=O)N1CCN(c2nc(C3CC3)c(OCc3cccc(C#N)c3)cc2C#N)C[C@H]1C` [Compound 294, (R)-5-(3-cyanobenzyloxy)-6-cyclopropyl-2-(4-(3-methoxypropanoyl)-3-methylpiperazin-1-yl)nicotinonitrile], the concentration for half-maximal inhibition (IC50) is 500 to 1000 nM in assay [1], 500 to 1000 nM in assay [2] and less than 500 nM in assay [3].

Consider `C=Cc1cc(-c2cc(C#N)c(N3CCN(C(=O)CCCOP(=O)(OC(C)(C)C)OC(C)(C)C)[C@H](C4CC4)C3)nc2C2CC2)ccn1` [Compound 804, (R)-di-tert-butyl 4-(4-(5-cyano-2-cyclopropyl-2′-vinyl-3,4′-bipyridin-6-yl)-2-cyclopropylpiperazin-1-yl)-4-oxobutyl phosphate], for which the concentration for half-maximal inhibition (IC50) is less than 500 nM in assay [1], 500 to 1000 nM in assay [2] and less than 500 nM in assay [3].

For `C=CC(=O)N1CCC=C(c2cc(C#N)c(N3CCN(C(=O)COC)[C@H](C4CC4)C3)nc2C2CC2)C1` [Compound 728, (R)-5-(1-acryloyl-1,2,5,6-tetrahydropyridin-3-yl)-6-cyclopropyl-2-(3-cyclopropyl-4-(2-methoxyacetyl)piperazin-1-yl)nicotinonitrile], the IC50 in assay [1], in assay [2] and in assay [3] was less than 500 nM in each case.

Turning to `C=Cc1cc(-c2cc(C#N)c(N3CCN(C(=O)CCO)[C@H](C4CC4)C3)nc2C2CC2)c2ccncc2n1` [Compound 688, (R)-6-cyclopropyl-2-(3-cyclopropyl-4-(3-hydroxypropanoyl)piperazin-1-yl)-5-(2-vinyl-1,7-naphthyridin-4-yl)nicotinonitrile], the 50% inhibitory concentration (IC50) in assay [1], in assay [2] and in assay [3] was less than 500 nM throughout.

`C#CC(=O)Nc1cccc(-c2cc(C#N)c(N3CCN(C(=O)CCOC)[C@H](C)C3)nc2C2CC2)c1` [Compound 428, (R)—N-(3-(5-cyano-2-cyclopropyl-6-(4-(3-methoxypropanoyl)-3-methylpiperazin-1-yl)pyridin-3-yl)phenyl)propiolamide]: the half-inhibitory concentration (IC50) in assay [1] is less than 500 nM; in assay [2], 500 to 1000 nM; in assay [3], less than 500 nM.

Turning to `COCCC(=O)N1CCN(c2nc(C3CC3)c(-c3cccc(NC(=O)[C@H](C)Cl)c3)cc2C#N)C[C@H]1C` [Compound 447, (S)-2-chloro-N-(3-(5-cyano-2-cyclopropyl-6-((R)-4-(3-methoxypropanoyl)-3-methylpiperazin-1-yl)pyridin-3-yl)phenyl)propanamide], the values for the IC50 in assay [1], in assay [2] and in assay [3] were 1000 to 10000 nM, 1000 to 10000 nM and 500 to 1000 nM, respectively.

In the case of `C=Cc1cnnc(-c2c(C3CC3)nc(N3CCN(C(=O)CCO)[C@H](C4CC4)C3)c(C#N)c2C)c1` [Compound 767, (R)-6-cyclopropyl-2-(3-cyclopropyl-4-(3-hydroxypropanoyl)piperazin-1-yl)-4-methyl-5-(5-vinylpyridazin-3-yl)nicotinonitrile], the IC50 in assay [1], in assay [2] and in assay [3] was less than 500 nM throughout.

Consider `C=C(F)C(=O)Nc1cccc(-c2cc(C#N)c(N3CCN(C(=O)CCOC)[C@H](C)C3)nc2C2CC2)c1` [Compound 431, (R)—N-(3-(5-cyano-2-cyclopropyl-6-(4-(3-methoxypropanoyl)-3-methylpiperazin-1-yl)pyridin-3-yl)phenyl)-2-fluoroacrylamide], for which the 50% inhibitory concentration (IC50) in assay [1], in assay [2] and in assay [3] was 500 to 1000 nM throughout.

In the case of `C=Cc1cc(N(C)c2cc(C#N)c(N3CCN(C(=O)CCO)[C@H](C4CC4)C3)nc2C2CC2)ccn1` [Compound 730, (R)-6-cyclopropyl-2-(3-cyclopropyl-4-(3-hydroxypropanoyl)piperazin-1-yl)-5-(methyl(2-vinylpyridin-4-yl)amino)nicotinonitrile], the IC50 in assay [1], in assay [2] and in assay [3] was less than 500 nM throughout.

As to `C=Cc1ccc2c(-c3cc(C#N)c(N4CCN(C(=O)C5CC5)[C@H](C5CC5)C4)nc3C3CC3)cccc2n1` [Compound 475, (R)-2-(4-(cyclopropanecarbonyl)-3-cyclopropylpiperazin-1-yl)-6-cyclopropyl-5-(2-vinylquinolin-5-yl)nicotinonitrile], the IC50 is 500 to 1000 nM in assay [1], less than 500 nM in assay [2] and less than 500 nM in assay [3].

As for `C#CC(=O)N(C)c1cccc(-c2cc(C#N)c(N3CCN(C(=O)CCOC)[C@H](C)C3)nc2C2CC2)c1` [Compound 456], the IC50 in assay [1], in assay [2] and in assay [3] was less than 500 nM in each case.

For the compound `COCCC(=O)N1CCN(c2nc(C3CC3)c(-c3ccccc3OC(F)(F)F)cc2C#N)C[C@H]1C(C)C` [Compound 276, (R)-6-cyclopropyl-2-(3-isopropyl-4-(3-methoxypropanoyl)piperazin-1-yl)-5-(2-(trifluoromethoxy)phenyl)nicotinonitrile], the IC50 in assay [1] was 1000 to 10000 nM; in assay [2], 1000 to 10000 nM; in assay [3], less than 500 nM.

In the case of `C=Cc1cc(-c2cc(C#N)c(N3CCN(C(=O)C[C@H](C)O)[C@H](C4CC4)C3)nc2C2CC2)ccn1` [Compound 595, 2-cyclopropyl-6-((R)-3-cyclopropyl-4-((S)-3-hydroxybutanoyl)piperazin-1-yl)-2′-vinyl-3,4′-bipyridine-5-carbonitrile], the half-maximal inhibitory concentration (IC50) in assay [1], in assay [2] and in assay [3] was less than 500 nM throughout.

`C=Cc1cc(-c2cc(C#N)c(N3CCN(C(=O)CCOC)[C@H](C(C)C)C3)nc2C2CC2)ncn1` [Compound 639, (R)-6-cyclopropyl-2-(3-isopropyl-4-(3-methoxypropanoyl)piperazin-1-yl)-5-(6-vinylpyrimidin-4-yl)nicotinonitrile]: the concentration for half-maximal inhibition (IC50) in assay [1], in assay [2] and in assay [3] was less than 500 nM each time.

With `COCCC(=O)N1CCN(c2nc(C3CC3)c(-c3ccc(C(N)=O)cc3)cc2C#N)C[C@H]1C` [Compound 296, (R)-4-(5-cyano-2-cyclopropyl-6-(4-(3-methoxypropanoyl)-3-methylpiperazin-1-yl)pyridin-3-yl)benzamide], the IC50 in assay [1] is 500 to 1000 nM; in assay [2], 500 to 1000 nM; in assay [3], less than 500 nM.

In the case of `COCCC(=O)N1CCN(c2nc(C3CC3)c(-c3ccc4c(c3)CC(=O)N4)cc2C#N)C[C@H]1C` [Compound 384, (R)-6-cyclopropyl-2-(4-(3-methoxypropanoyl)-3-methylpiperazin-1-yl)-5-(2-oxoindolin-5-yl)nicotinonitrile], the half-inhibitory concentration (IC50) is 500 to 1000 nM in assay [1], 500 to 1000 nM in assay [2] and less than 500 nM in assay [3].
